Earlier results in US4650664A (Dr. Karl Thomae GmbH, priority 1982, dated 1987).

Conditions: human

OCCN(CCO)c1nc(N2CCCCC2)c2nc(N(CCO)CCO)ncc2n1 [Mopidamol, 2,6-bis-(diethanolamino)-4-piperidinopyrimido[5,4-d]pyrimidine]
Excretion in the urine: only excreted in the urine to a very small extent
